{
  "source": "paper PMC6648289",
  "about": "(ACS Omega, 2019)",
  "test_in_all_cases": "FLIPR membrane potential",
  "assay_type_in_all_cases": "cell-based",
  "conditions_in_all_cases": "concentration used for PAM testing",
  "key": {"[1]": {"molecular_target": "T1, human α1β2δ GABAA receptor (Homo sapiens, UniProt O14764+P14867+P47870)", "T1 sequence (P14867 28-456)": "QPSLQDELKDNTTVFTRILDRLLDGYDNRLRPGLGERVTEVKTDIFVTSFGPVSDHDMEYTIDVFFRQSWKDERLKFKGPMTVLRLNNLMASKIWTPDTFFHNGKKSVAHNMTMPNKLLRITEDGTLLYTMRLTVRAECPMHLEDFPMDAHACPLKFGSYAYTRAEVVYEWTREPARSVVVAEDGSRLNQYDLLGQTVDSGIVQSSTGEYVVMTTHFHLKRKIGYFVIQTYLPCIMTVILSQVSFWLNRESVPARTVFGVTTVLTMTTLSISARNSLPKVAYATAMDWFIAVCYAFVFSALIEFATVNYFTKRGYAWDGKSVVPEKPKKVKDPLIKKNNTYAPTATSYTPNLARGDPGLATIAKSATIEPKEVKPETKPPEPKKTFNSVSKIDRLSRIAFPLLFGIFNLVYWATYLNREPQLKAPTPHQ", "T1 sequence (P47870 25-512 limits assumed)": "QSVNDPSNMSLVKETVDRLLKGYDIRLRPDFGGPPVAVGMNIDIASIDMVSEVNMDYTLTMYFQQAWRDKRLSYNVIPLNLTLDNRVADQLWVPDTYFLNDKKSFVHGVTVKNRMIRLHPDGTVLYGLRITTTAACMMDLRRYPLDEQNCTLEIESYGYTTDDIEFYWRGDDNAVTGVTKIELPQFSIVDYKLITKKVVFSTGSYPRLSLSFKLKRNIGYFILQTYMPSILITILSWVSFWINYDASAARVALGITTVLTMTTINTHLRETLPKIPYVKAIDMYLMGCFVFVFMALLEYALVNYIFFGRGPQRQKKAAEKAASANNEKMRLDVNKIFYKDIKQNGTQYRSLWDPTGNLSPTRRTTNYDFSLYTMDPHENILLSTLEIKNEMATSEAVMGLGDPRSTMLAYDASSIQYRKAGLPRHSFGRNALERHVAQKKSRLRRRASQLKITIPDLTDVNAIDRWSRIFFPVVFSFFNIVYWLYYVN", "T1 sequence (O14764 17-452 limits assumed)": "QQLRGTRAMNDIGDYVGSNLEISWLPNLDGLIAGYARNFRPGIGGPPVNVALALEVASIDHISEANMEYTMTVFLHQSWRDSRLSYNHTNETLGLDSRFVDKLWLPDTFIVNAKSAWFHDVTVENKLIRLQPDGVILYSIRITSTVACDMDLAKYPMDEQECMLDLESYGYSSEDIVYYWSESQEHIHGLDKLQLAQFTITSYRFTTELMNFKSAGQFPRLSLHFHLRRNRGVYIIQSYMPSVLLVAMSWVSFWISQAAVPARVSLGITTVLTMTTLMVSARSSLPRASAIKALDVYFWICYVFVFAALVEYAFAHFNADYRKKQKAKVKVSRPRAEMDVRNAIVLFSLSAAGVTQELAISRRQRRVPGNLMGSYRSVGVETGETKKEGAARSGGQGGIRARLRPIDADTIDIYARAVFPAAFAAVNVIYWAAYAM"}, "[2]": {"molecular_target": "human α4β2δ GABAA receptor (Homo sapiens, UniProt O14764+P47870+P48169)", "sequence (P48169 36-554, one chain of several)": "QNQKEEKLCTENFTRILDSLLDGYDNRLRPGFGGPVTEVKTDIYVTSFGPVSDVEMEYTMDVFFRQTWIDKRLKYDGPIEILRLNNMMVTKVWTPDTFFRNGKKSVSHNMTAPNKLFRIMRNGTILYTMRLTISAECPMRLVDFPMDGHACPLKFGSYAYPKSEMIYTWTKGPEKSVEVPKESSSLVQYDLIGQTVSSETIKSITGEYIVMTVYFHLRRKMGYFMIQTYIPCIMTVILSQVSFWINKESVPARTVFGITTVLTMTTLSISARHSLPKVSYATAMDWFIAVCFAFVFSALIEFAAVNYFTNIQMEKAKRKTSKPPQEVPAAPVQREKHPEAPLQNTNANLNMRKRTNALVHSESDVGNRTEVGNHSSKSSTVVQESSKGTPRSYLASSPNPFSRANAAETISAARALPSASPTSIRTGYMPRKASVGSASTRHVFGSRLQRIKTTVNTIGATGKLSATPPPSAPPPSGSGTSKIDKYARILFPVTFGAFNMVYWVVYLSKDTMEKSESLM"}, "[3]": {"molecular_target": "human α6β2δ GABAA receptor (Homo sapiens, UniProt O14764+P47870+Q16445)", "sequence (Q16445 20-453, one chain of several)": "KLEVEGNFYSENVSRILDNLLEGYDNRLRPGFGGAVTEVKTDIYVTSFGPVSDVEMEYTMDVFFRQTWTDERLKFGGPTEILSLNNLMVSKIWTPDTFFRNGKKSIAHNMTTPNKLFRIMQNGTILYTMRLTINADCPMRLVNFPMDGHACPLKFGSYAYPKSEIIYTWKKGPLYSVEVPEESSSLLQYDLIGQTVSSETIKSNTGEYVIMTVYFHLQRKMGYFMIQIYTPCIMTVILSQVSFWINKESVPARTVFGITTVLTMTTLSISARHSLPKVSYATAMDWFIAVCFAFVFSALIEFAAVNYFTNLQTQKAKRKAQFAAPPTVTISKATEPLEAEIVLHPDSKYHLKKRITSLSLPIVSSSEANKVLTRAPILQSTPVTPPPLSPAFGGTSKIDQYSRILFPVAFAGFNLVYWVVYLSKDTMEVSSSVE"}, "[4]": {"molecular_target": "human α6β2γ2s GABAA receptor (Homo sapiens, UniProt P18507+P47870+Q16445)", "sequence (Q16445 20-453, one chain of several)": "as above", "sequence (P18507 40-467 isoform P18507-1 limits assumed, one chain of several)": "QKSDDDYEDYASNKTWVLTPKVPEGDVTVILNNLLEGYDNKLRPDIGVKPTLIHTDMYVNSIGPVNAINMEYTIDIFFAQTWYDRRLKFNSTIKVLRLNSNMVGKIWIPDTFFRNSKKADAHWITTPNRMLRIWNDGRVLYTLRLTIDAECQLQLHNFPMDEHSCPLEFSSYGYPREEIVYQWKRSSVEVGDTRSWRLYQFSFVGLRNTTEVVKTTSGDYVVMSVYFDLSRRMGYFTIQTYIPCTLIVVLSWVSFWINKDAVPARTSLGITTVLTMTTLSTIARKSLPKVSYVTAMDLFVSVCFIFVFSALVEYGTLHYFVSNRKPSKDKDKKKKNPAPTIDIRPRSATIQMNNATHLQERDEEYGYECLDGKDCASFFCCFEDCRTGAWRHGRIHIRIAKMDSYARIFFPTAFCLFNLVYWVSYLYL"}},
  "data": [
    {"smiles": "NCCCC(=O)O", "note": "[GABA, γ-Aminobutyric acid]", "values": [
      {"measurement": "GABA EC20", "setting": "[1]", "value": "1.6 to 2.0", "unit": "µM"},
      {"measurement": "GABA EC20", "setting": "[2]", "value": 0.08, "unit": "µM"},
      {"measurement": "GABA EC20", "setting": "[3]", "value": 0.05, "unit": "µM"},
      {"measurement": "GABA EC20", "setting": "[4]", "value": "0.1 to 0.2", "unit": "µM"}
    ]}
  ]
}
